pIC50: −log10 of the molar value.
Experiments:
[1] = system: BHK cells transfected with CnA and CnB; assay: Calcium ionophore-induced apoptosis of BHK cells transfected with CnA/CnB; assay type: cell-based, baby hamster; conditions: ionomycin, low serum
Description: FIG. 7: Cells transfected with CnA/CnB (0.5 μg each) were serum deprived for four hours and stimulated with ionomycin (0.25 μM) for one hour in low serum media alone or containing CsA (800 nM), 6 MeAla-CsA (800 nM), and MeBm2t-CsA (800 nM), FK506 (100 nM).
Calcium signaling plays an important and yet mechanistically vague role in a wide range of cell death, including neuronal cell death in stroke and lymphocyte cell death during positive and negative selection. To test the possibility that calcineurin, a calcium-activated phosphatase, participates in cell death, we asked if cells overexpressing calcineurin would show an enhanced sensitivity to calcium ionophore-induced cell death (Shibasaki and McKeon, 1995). We co-transfected calcineurin A and B subunits into baby hamster kidney (BHK) cells and treated them with calcium ionophore approximately 16 hours later.

[2] = target: T1, purified bovine brain calcineurin (Bos taurus, UniProt P48452+P63099); assay: Phosphorylated RII-peptide calcineurin phosphatase assay; assay type: biochemical; conditions: PKA-phosphorylated RII peptide as substrate; GsT fusion proteins 0-20 nM, 15 minutes; read-out: 50 percent inhibition concentrations (IC50) for calcineurin
T1 construct: 50 nM purified bovine brain calcineurin; from tissue; host or cells: bovine brain
Description: The RII peptide of the cAMP-regulatory subunit of PKA was produced as a fusion protein with GsT and labeled with ^32P-phosphate using protein kinase A followed by glutathione-Sepharose affinity purification (Milan et al., 1994). The radiolabeled RII GsT fusion protein was incubated with 1.5u of purified bovine brain calcineurin (ProMega) and 200 nM calmodulin (Sigma) in the presence of 0-20 nM GsT-Csp1 or GsT-Csp2 for 15 minutes. The reaction was stopped by the addition of an equal volume of 2xSDS sample buffer. After fractionation by SDS-polyacrylamide gel electrophoresis, free phosphate was measured by PhosphorImager analysis.

[3] = target: T1, purified bovine brain calcineurin; assay: Para-nitrophenyl phosphate (pNPP) hydrolysis assay; assay type: biochemical; conditions: 60 mM pNPP, 50 nM calcineurin, 0-100 nM GsT fusion protein
Description: To determine whether the calcipressins; inhibit calcineurin in a manner similar to the immunosuppressants, we assayed pNPP hydrolysis by calcineurin-calcipressin complexes.
Reactions were performed for 30 min at 30 degrees, and stopped by the addition of 950 uL of 1M NaOH. The reaction product was measured by absorbance at 405 nm in a Beckman Du 64 spectophotometer.

[4] = Solubility assay upon expression in E. coli; assay type: physicochemical
Text: Calcineurin consists of two subunits (Klee et al., 1998), CnA (60 kDa) and CnB (18 kDa), neither of which is soluble when expressed individually in E. coli. The structure of calcineurin was studied by taking advantage of the high level of calcineurin in the central nervous system to directly isolate it from bovine brain (Griffith et al., 1995). […] It is likely that the insolublility of Csp expression in E. coli is due to the absence of binding proteins such as calcineurin, thereby leaving hydrophobic stretches of amino acids uncomplemented (FIG. 1). As with the calcineurin subunits, it is possible that Csp 1 and Csp2 interact with calcineurin in a manner that will form a properly folded, soluble complex. […] The E. coli host containing the calcineurin expression vector will be transformed with these Csp vectors and selected for kanamycin resistance.
Alternatively the given protein or complex may be obtained in sufficient quantities and quality and crystallization protocols may be attempted. […] The skilled artisan will appreciate that other protein expression systems, such as baculovirus, may also be used.

[5] = system: human calcineurin A subunit; assay: Yeast two-hybrid interaction with calcineurin; assay type: binding
human calcineurin A subunit, sequence (P63098 2-170, further chain): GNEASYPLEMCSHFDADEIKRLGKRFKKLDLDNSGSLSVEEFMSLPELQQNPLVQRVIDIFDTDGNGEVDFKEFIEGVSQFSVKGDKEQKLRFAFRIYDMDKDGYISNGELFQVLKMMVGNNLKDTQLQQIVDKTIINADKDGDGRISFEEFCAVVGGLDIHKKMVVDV
Text: Potential targets of calcineurin, which is involved in neuronal calcium signaling, were identified using two hybrid screens of a murine hippocampal cDNA library as the prey and using calcineurin as a bait.
The calcineurin bait vector was constructed by cloning the human calcineurin A subunit (ΔCnAD130N; Zhu and McKeon, 1999) into pBRIDGE (Clontech) to create a fusion protein with the Gal4 DNA binding domain. The calcineurin regulatory B subunit (CnB) was cloned into the same pBridge vector under a separate, constitutive promoter. To test for interactions between calcineurin and proteins expressed in the hippocampus, the yeast strain CG1945, in which HIS3 expression is controlled by the Gal1 upstream activating sequence (UAS), was transfected with both the pBRIDGE vector as well as vector DNA from the murine hippocampal cDNA library. Cells were selected for growth on SD media lacking leucine, tryptophan, methionine, and histidine (-LWMH) containing 25 mM 3-aminotriazole, an inhibitor of alternative histidine biosynthetic pathways (REF). […]

[6] = system: calcineurin-dependent nuclear import of NF-AT4; assay: Calcineurin-dependent NF-AT4 nuclear import assay in BHK cells; assay type: cell-based, baby hamster; conditions: for inhibition of NF-AT4 nuclear import stimulated by calcium ionophore: co-expressed with GFP-NF-AT4 in BHK cells; for inhibition of NF-AT nuclear import driven by constitutively active calcineurin (ΔCnA): co-expressed with NF-AT and constitutively active ΔCnA in BHK cells
Description: This assay monitors the subcellular location of GFP-tagged NF-AT4, a transcription factor that resides in the cytoplasm of unstimulated BHK cells. Following stimulation of BHK cells with ionomycin, a calcium ionophore, GFP-NF-AT4 translocates to the nucleus with a t1/2 of five minutes. This translocation event is accompanied by a dephosphorylation of NF-AT4 in a process dependent on calcineurin.
Baby hamster kidney cells were grown on sterile glass coverslips in DMEM media with 10% fetal calf serum and transfected using calcium phosphate methods (Heald et al., 1993). […] NF-AT4 expression was based on the vector pcDNA3-GFP-NF-AT4 (Shibasaki et al., 1996). Transfected cells were grown for 18 hours prior to drug treatments. Cells were fixed 30 minutes after ionomycin (0.5 uM) treatment or washout using 3% formaldehyde in PBS for 10 minutes at room temperature.

[7] = system: calcineurin-dependent NF-AT dephosphorylation; assay: NF-AT4 dephosphorylation (western blot mobility) in BHK cells; assay type: cell-based, baby hamster; conditions: co-expressed with NF-AT4 in BHK cells; calcium ionophore treatment
Description: 3B. […] The transfected cells were either left untreated or treated with 1 μM calcium inonphore for 30 min, and the mobility of NF-AT4 was assessed by western blotting.

Csp1 transcripts = assay: Csp1 transcript induction (Northern blot) in Jurkat T cells; assay type: cell-based; conditions: human Jurkat T cells, through eight hours
Description: 16A. Calcium signaling induces Csp 1 expression in synergy with PKC pathways. Csp 1 Northern blot of Jurkat T cells were treated with either calcium ionophore (I), PMA (P) or both (I+P) for the indicated durations. GAPDH transcripts were used as sample loading control.
16B. Calcium-dependent Csp 1 induction requires calcineurin.

Question: With `C/C=C/CC(C)(C)[C@@H](O)C1C(=O)N[C@@H](CC)C(=O)N(C)CC(=O)N(C)[C@@H](CC(C)C)C(=O)N[C@@H](C(C)C)C(=O)N(C)[C@@H](CC(C)C)C(=O)N[C@@H](C)C(=O)N[C@H](C)C(=O)N(C)[C@@H](CC(C)C)C(=O)N(C)[C@@H](CC(C)C)C(=O)N(C)[C@@H](C(C)C)C(=O)N1C` (some centres unmarked) [MeBm2t-CsA] as the molecule, how does the “effect on calcineurin-induced apoptosis” value [1] read?
Answer: augment the apoptotic effect of calcineurin to a greater extent than CsA

Question: With “Csp1: Calcipressin 1, murine homolog of DSCR1, endogenous inhibitor of calcineurin; amino acid sequence SEQ ID No: 4” as the molecule, how does the pIC50 [2] read?
Answer: 8.70

Question: With “Csp2: Calcipressin 2, murine homolog of ZAKI-4, endogenous inhibitor of calcineurin; amino acid sequence SEQ ID No: 5” as the molecule, how does the “inhibition of pNPP hydrolysis by calcineurin” value [3] read?
Answer: blocked the hydrolysis of pNPP by calcineurin

Question: And the pIC50 [2]?
Answer: 8.30

Question: What about the “typical yield of total protein in the soluble fraction” value ([4]; full length molecule expressed in E. coli at 15, 22, or 30° C.) of the same molecule?
Answer: 3%

Question: And the “binding to calcineurin in two-hybrid yeast strains” value [5]?
Answer: specifically bind to the catalytic subunit of calcineurin (CnA)

Question: What about the “inhibition of NF-AT4 nuclear import stimulated by calcium ionophore” value [6] of the same molecule?
Answer: profound suppression

Question: And the “inhibition of NF-AT nuclear import driven by constitutively active calcineurin (ΔCnA)” value [6]?
Answer: strong inhibitors of ΔCnA-induced NF-AT nuclear import

Question: And the NF-AT4 phosphorylation state [7]?
Answer: hyperphosphorylated despite calcium ionophore treatment

Question: Which “fraction of molecule soluble in E. coli” value ([4]; truncated molecule expressed in E. coli) does the source give for “Csp1 101-197: Csp1 lacking the N-terminus; C-terminal half of Csp1 (amino acids 101-197)” here?
Answer: approximately 70%

Question: And the “inhibition of NF-AT4 nuclear import stimulated by calcium ionophore” value [6]?
Answer: sufficient to inhibit the nuclear import of NF-AT4

Question: For `CCCCCCCCCCCCCC(=O)O[C@@H]1[C@@H](C)[C@@]2(O)[C@@H](C=C(CO)C[C@]3(O)C(=O)C(C)=C[C@@H]23)[C@@H]2C(C)(C)[C@]12OC(C)=O` [PMA, phorbol 12-myristate 13-acetate], which “effect on Csp1 transcript level” value (Csp1 transcripts) is on record?
Answer: weak yet detectable stimulation of Csp1 transcription

Question: For “Csp3: Third calcipressin family member, cDNA cloned from activated murine T cells; amino acid sequence SEQ ID No: 24”, which “inhibition of NF-AT nuclear import driven by constitutively active calcineurin (ΔCnA)” value [6] is on record?
Answer: inhibits the calcineurin mediated translocation of NFAT

Question: Which “effect on Csp1 transcript level” value (Csp1 transcripts) does the source give for `C[C@H](CCC(=O)O)C[C@H](C)C[C@H](C)C(=O)/C=C(\O)[C@H](C)C[C@H](C)C/C=C/[C@@H](C)[C@@H](O)[C@@H](C)[C@@H](O)C[C@@H]1CC[C@@](C)([C@H]2CC[C@@](C)([C@@H](C)O)O2)O1` [ionomycin] here?
Answer: not significantly elevated
